Patent US10626349B2, “Cleavable surfactants” (PROMEGA CORPORATION, priority 2007, dated 2020)

Experiments:
[1] = biological target: T1, Myoglobin from horse heart digested with trypsin (Equus caballus, UniProt P68082); assay: Myoglobin/Trypsin digest, HPLC peak area versus RapiGest control; type: biochemical; conditions: 0.01% surfactant, trypsin 50:1, 20 minutes at 37° C.; ratio to RapiGest control, >1 = more digestion
T1 construct: Myoglobin from horse heart; from tissue; host or cells: horse heart
T1 sequence (P68082 2-154 limits assumed): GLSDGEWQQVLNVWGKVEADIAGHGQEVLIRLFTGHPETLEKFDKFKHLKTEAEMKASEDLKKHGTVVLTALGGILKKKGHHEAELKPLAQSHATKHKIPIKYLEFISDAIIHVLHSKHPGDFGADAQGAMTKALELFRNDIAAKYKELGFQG
Description: Myoglobin from horse heart (typically 25 μs) was digested with trypsin (Promega) at a 50:1 ratio in a volume of 125 μL (typical) of 50 mM Ammonium bicarbonate for 20 minutes at 37° C. with 0.01% RapiGest™ surfactant or 0.01% of the indicated compound of the invention (upper and lower chromatograms, respectively). TFA was added to 0.5-2% and the mixtures were incubated at 37° C. or 65° C. for 20 or 30 minutes. Degraded surfactant was removed by centrifugation at 14,000×g for 5 minutes. HPLC analysis was performed on a 25-50 μL reaction sample using an HP1050 LC system with an Agilent Sorbax SB-C18 column (3.0×100 mm, 3.5 micron) and a gradient of 0.1% TFA (97.5% initial) and Acetonitrile, 0.01% TFA (55% final condition followed by a 100% wash step) and a flow rate of 0.75 mL/min. Peptides were detected at 214 and 280 nm.
(§1) For each compound numbered below in Example 12, the rate of enhanced digestion was determined from the ratio of the surfactant peak area (surfactant # Pk. Area) to the Rapigest™ surfactant peak area (RG Pk area). Peak area was determined as the sum of all peaks integrated from 8-22 minutes.

[2] = biological target: T2, Bacteriorhodopsin digested with chymotrypsin (Halobacterium salinarum, UniProt P02945); assay: Bacteriorhodopsin/Chymotrypsin digest, HPLC peak area versus RapiGest control; type: biochemical; conditions: 0.025% surfactant, BR heated (boiled) with surfactant 5 minutes at 95° C., chymotrypsin 10:1, 1 hour at 37° C.; ratio to RapiGest control
T2 sequence (P02945 14-261 limits assumed): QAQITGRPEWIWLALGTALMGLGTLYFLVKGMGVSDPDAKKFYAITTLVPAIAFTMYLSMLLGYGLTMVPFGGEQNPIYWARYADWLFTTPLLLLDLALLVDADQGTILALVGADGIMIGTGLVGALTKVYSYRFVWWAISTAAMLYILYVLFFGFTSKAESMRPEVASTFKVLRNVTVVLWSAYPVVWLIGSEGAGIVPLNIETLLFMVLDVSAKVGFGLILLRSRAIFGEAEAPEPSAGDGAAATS
Description: Bacteriorhodopsin (25 μs) was heated with 0.025% Rapigest™ surfactant or the indicated compound of the invention for 5 minutes at 95° C., then digested with chymotrypsin (Sigma) at a 10:1 ratio in 125 μL 50 mM Ammonium bicarbonate for 1 hour at 37° C. After one hour TFA was added to 0.5-2% and the mixtures were incubated at 37° C. or 65° C. for 20 or 30 minutes. Degraded surfactant was removed by centrifugation at 14,000×g for 5 minutes. An aliquot of 50-100 μL of digested protein was analyzed by HPLC as described above.
Compound 3211, 3212, 3224 and Rapigest™ surfactant control for FIG. 13C reactions: Bacteriorhodopsin (25 μs) was solubilized with 0.025% compound of interest for 1-2 minutes at room temperature, then digested with chymotrypsin (Sigma) at a 10:1 ratio in 125 μL 50 mM Ammonium bicarbonate for 1 hour at 37° C. After one hour TFA was added to 0.5-2% and the mixtures were incubated at 37° C. or 65° C. for 20 or 30 minutes. Degraded surfactant was removed by centrifugation at 14,000×g for 5 minutes. An aliquot of 50-100 μL of digested protein was analyzed by HPLC as described above.
as §1

[3] = Solubility of the surfactant; conditions: for solubility in aqueous solutions (concentration dissolved to) / solubility in aqueous solutions (in words): aqueous solution; for solubilized in DMSO to: 100% DMSO
[4] = Hydrolytic stability in 50 mM ammonium bicarbonate (reverse-phase HPLC); type: physicochemical; parameters: key: >>: compound 100% stable over course of experiment
Description: Hydrolytic stability was measured by monitoring the change in retention time of the intact surfactant by reverse-phase HPLC. The ½-life is defined as the time required to reach 50% degradation.

[5] = Acid and thermal degradation of the surfactant; conditions: for degradation after overnight incubation (in words): concentration not given; for degradation by acid (0.5% TFA) or by heat (boiling), in words: 3236: 0.1% solution in 0.5% TFA 30 minutes at 37° C. or 5 minutes of boiling without TFA
[6] = surfactant conc. 0.025% in 50 mM ammonium bicarbonate
[7] = surfactant conc. 1% in 50 mM ammonium bicarbonate

| SMILES | surfactant Pk area/RG Pk area, Myoglobin/Trypsin digest [1] | surfactant Pk area/RG Pk area, Bacteriorhodopsin/Chymotrypsin digest [2] | solubility in aqueous solutions (concentration dissolved to) [3] | ½-life [4, 6] | also measured |
| --- | --- | --- | --- | --- | --- |
| CCCCCC/C=C/C(C)OC(=O)NCCCS(=O)(=O)O (centres unmarked) [Compound 3201] | 0.3 | 0.4 | 0.5% |  |  |
| CCCCCCCCCCC(OC(=O)NCCCS(=O)(=O)O)c1ccoc1 (centres unmarked) [Compound 3271] | 0.9 |  | 1% | >350 h | ½-life [4, 7]: >>; acid-lability (in words) ([5]; 0.5% TFA at 37° C. where stated (3237: 30 minutes), 3271 by TLC analysis): Just partially acid-labile; thermolability (in words) ([5]; 3266: 5 minutes at 95° C.): thermostable |
| CCCCCCCCCCCC(C)(C)OC(=O)Oc1ccc(NCCCCS(=O)(=O)O)cc1 [Compound 3195] | 0.5 |  | not more than 0.2% |  | degradation after overnight incubation (in words) [5]: No degradation was observed even after overnight incubation |
| CCCCCCC(OC(=O)NCCCS(=O)(=O)O)c1ccc(C(F)(F)F)cc1 (centres unmarked) [Compound 3199] | 0.37 |  | 0.5% |  | degradation after overnight incubation (in words) [5]: No degradation was observed even after overnight incubation |
| CCCCCCCCCCOc1ccc(C(OCCN(CCCCS(=O)(=O)[O-])CCCCS(=O)(=O)[O-])(c2ccccc2)c2ccc(OCCCCCCCCCC)cc2)cc1.[Na+].[Na+] [Compound 3218] | 0.3 | 0.65 |  |  | solubilized in DMSO to [3]: 10%; solubility in aqueous solutions (in words) [3]: Insoluble in aqueous solutions |
| CCCCCCCCCCOc1ccc(C(OCCc2ccc(N(CCCCS(=O)(=O)[O-])CCCCS(=O)(=O)[O-])cc2)(c2ccccc2)c2ccc(OC)cc2)cc1.[Na+].[Na+] (centres unmarked) [Compound 3219] |  |  | 1% |  |  |
| CCCCCCCCCCCc1ccc(C(OCCc2ccc(N(CCCCS(=O)(=O)[O-])CCCCS(=O)(=O)[O-])cc2)(c2ccccc2)c2ccc(OCCCCCCCCCC)cc2)cc1.[Na+].[Na+] (centres unmarked) [Compound 3216] |  | 0.7 |  |  | solubilized in DMSO to [3]: 10%; solubility in aqueous solutions (in words) [3]: Insoluble in aqueous solutions |
| CCCCCC(OC(=O)NCCCS(=O)(=O)O)c1ccccc1 (centres unmarked) [Compound 3190] |  | 0.34 | 0.5% |  | time to degradation of 0.01% solution ([5]; 0.01% solution, 37° C. where stated): 30 min; degradation of 0.1% solution (in words) ([5]; 0.1% solution): overnight |
| CCCCCCCCCCC(OC(=O)NCCCS(=O)(=O)O)c1ccc(Cl)o1 (centres unmarked) [Compound 3274] | 1 |  | 1% | ~6 h | degradation by acid (0.5% TFA) or by heat (boiling), in words [5]: Acid- and thermolabile |
| CCCCCCCCCCC(OC(=O)NCCCS(=O)(=O)O)c1ccc(C(F)(F)F)o1 (centres unmarked) [Compound 3275] | 0.2 |  | 1% | >300 h | ½-life [4, 7]: >>; degradation by acid (0.5% TFA) or by heat (boiling), in words [5]: Fully acid- and thermostable at the tested conditions |
| CCCCCC/C=C/C(C)OC(=O)Oc1ccc(NCCCS(=O)(=O)[O-])cc1.[Na+] (centres unmarked) [Compound 3209] | 2.1 |  | 0.5% |  | degradation after overnight incubation (in words) [5]: No degradation was observed even after overnight incubation |
| CCCCCCCCCCC(OC(=O)NCCCS(=O)(=O)[O-])c1ccc(OC)cc1.[Na+] (centres unmarked) [Compound 3212] | 1.4 |  |  | 21 h | ½-life ([4]; surfactant conc. 0.0025% in 50 mM ammonium bicarbonate): 3.7 h; ½-life ([4]; surfactant conc. 0.10% in 50 mM ammonium bicarbonate): 38 h; ½-life [4, 7]: >>; solubility (concentration dissolved to) ([3]; in 50 mM ammonium bicarbonate): 1%; time to degradation in 0.5% TFA ([5]; 0.5% TFA, 37° C. where stated, 0.1% solution for 3220 and 3266): 15 min; time to degradation by boiling without TFA ([5]; boiling without TFA): 5 min |
